Test results reported in paper PMC4061985 (Journal of immunology (Baltimore, Md. : 1950), 2009).
Residues, ends and D or L forms follow the SMILES beside them.

Tests used:
[1] = target: HLA-DRA1/B1*0901, soluble recombinant protein (human)
HLA-DR0901 protein = HLA-DR0901 protein (Homo sapiens, UniProt P01903+P01911, A100R/A103E/D57H/D86V/F55Y/F60I/F76Y/I96F/K127E/L162R/M171V/P40D/Q125H/Q99R/R33Q/R42F/S133A/S66N/T210M/V115G/W38K/Y107V/Y59G/Y89S); experiment: Peptide binding competition assay, DR0901

Molecule: TT 503–515 peptide, unmodified
- Kd [1]: 73 nM

Molecule: CC[C@H](C)[C@H](NC(=O)[C@H](CCCCN)NC(=O)[C@H](CC(=O)O)NC(=O)[C@H](CC(C)C)NC(=O)[C@H](CO)NC(=O)[C@H](Cc1ccc(O)cc1)NC(=O)[C@H](CC(N)=O)NC(=O)[C@H](CCSC)NC(=O)[C@H](CC(N)=O)NC(=O)[C@@H](N)CC(C)C)C(=O)N[C@H](C(=O)N[C@H](C(=O)N[C@@H](CC(=O)O)C(=O)O)C(C)C)[C@@H](C)CC [LNMNYSLDKIIVD] (H-LNMNYSLDKIIVD-OH)
- Kd (HLA-DR0901 protein): 600 ± 150 nM

Molecule: CC[C@H](C)[C@H](NC(=O)[C@H](Cc1ccc(O)cc1)NC(=O)[C@H](CC(=O)O)NC(=O)[C@H](CC(C)C)NC(=O)[C@H](CO)NC(=O)[C@H](Cc1ccc(O)cc1)NC(=O)[C@H](CC(N)=O)NC(=O)[C@H](Cc1ccccc1)NC(=O)[C@H](CC(N)=O)NC(=O)[C@@H](N)CC(C)C)C(=O)N[C@H](C(=O)N[C@H](C(=O)N[C@@H](CC(=O)O)C(=O)O)C(C)C)[C@@H](C)CC [LNFNYSLDYIIVD] (H-LNFNYSLDYIIVD-OH)
- Kd (HLA-DR0901 protein): 41 ± 10 nM

Molecule: CC[C@H](C)[C@H](NC(=O)[C@H](CCCCN)NC(=O)[C@H](CC(=O)O)NC(=O)[C@H](CC(C)C)NC(=O)[C@H](CO)NC(=O)[C@H](Cc1ccc(O)cc1)NC(=O)[C@H](CC(N)=O)NC(=O)[C@H](Cc1ccccc1)NC(=O)[C@H](CC(N)=O)NC(=O)[C@@H](N)CC(C)C)C(=O)N[C@@H](C)C(=O)N[C@H](C(=O)N[C@@H](CC(=O)O)C(=O)O)C(C)C [LNFNYSLDKIAVD] (H-LNFNYSLDKIAVD-OH)
- Kd (HLA-DR0901 protein): 940 ± 250 nM

Molecule: CC[C@H](C)[C@H](NC(=O)[C@H](CCCCN)NC(=O)[C@H](CC(=O)O)NC(=O)[C@H](CC(C)C)NC(=O)[C@H](CO)NC(=O)[C@H](Cc1ccc(O)cc1)NC(=O)[C@H](CC(N)=O)NC(=O)[C@H](Cc1ccccc1)NC(=O)[C@H](CC(N)=O)NC(=O)[C@@H](N)CC(C)C)C(=O)N[C@@H](Cc1c[nH]cn1)C(=O)N[C@H](C(=O)N[C@@H](CC(=O)O)C(=O)O)C(C)C [LNFNYSLDKIHVD] (H-LNFNYSLDKIHVD-OH)
- Kd (HLA-DR0901 protein): 740 ± 170 nM

Molecule: CC[C@H](C)[C@H](NC(=O)[C@H](CCCCN)NC(=O)[C@H](CC(=O)O)NC(=O)[C@H](CC(C)C)NC(=O)[C@H](CO)NC(=O)[C@H](Cc1ccc(O)cc1)NC(=O)[C@H](CC(N)=O)NC(=O)[C@H](Cc1ccccc1)NC(=O)[C@H](CC(N)=O)NC(=O)[C@@H](N)CC(C)C)C(=O)N[C@@H](Cc1c[nH]c2ccccc12)C(=O)N[C@H](C(=O)N[C@@H](CC(=O)O)C(=O)O)C(C)C [LNFNYSLDKIWVD] (H-LNFNYSLDKIWVD-OH)
- Kd (HLA-DR0901 protein): 530 ± 50 nM

Molecule: CC[C@H](C)[C@H](NC(=O)[C@H](CC(N)=O)NC(=O)[C@H](CC(=O)O)NC(=O)[C@H](CC(C)C)NC(=O)[C@H](CO)NC(=O)[C@H](Cc1ccc(O)cc1)NC(=O)[C@H](CC(N)=O)NC(=O)[C@H](Cc1ccccc1)NC(=O)[C@H](CC(N)=O)NC(=O)[C@@H](N)CC(C)C)C(=O)N[C@H](C(=O)N[C@H](C(=O)N[C@@H](CC(=O)O)C(=O)O)C(C)C)[C@@H](C)CC [LNFNYSLDNIIVD] (H-LNFNYSLDNIIVD-OH)
- Kd (HLA-DR0901 protein): 27 ± 1 nM

Molecule: CC[C@H](C)[C@H](NC(=O)[C@H](CCCCN)NC(=O)[C@H](CC(=O)O)NC(=O)[C@H](CC(C)C)NC(=O)[C@H](CCSC)NC(=O)[C@H](Cc1ccc(O)cc1)NC(=O)[C@H](CC(N)=O)NC(=O)[C@H](Cc1ccccc1)NC(=O)[C@H](CC(N)=O)NC(=O)[C@@H](N)CC(C)C)C(=O)N[C@H](C(=O)N[C@H](C(=O)N[C@@H](CC(=O)O)C(=O)O)C(C)C)[C@@H](C)CC [LNFNYMLDKIIVD] (H-LNFNYMLDKIIVD-OH)
- Kd (HLA-DR0901 protein): 146 ± 9 nM

Molecule: CC[C@H](C)[C@H](NC(=O)[C@H](CCCCN)NC(=O)[C@H](CC(=O)O)NC(=O)[C@H](CC(C)C)NC(=O)[C@H](CC(=O)O)NC(=O)[C@H](Cc1ccc(O)cc1)NC(=O)[C@H](CC(N)=O)NC(=O)[C@H](Cc1ccccc1)NC(=O)[C@H](CC(N)=O)NC(=O)[C@@H](N)CC(C)C)C(=O)N[C@H](C(=O)N[C@H](C(=O)N[C@@H](CC(=O)O)C(=O)O)C(C)C)[C@@H](C)CC [LNFNYDLDKIIVD] (H-LNFNYDLDKIIVD-OH)
- Kd (HLA-DR0901 protein): 1040 nM

Molecule: CC[C@H](C)[C@H](NC(=O)[C@H](CCCCN)NC(=O)[C@H](CCSC)NC(=O)[C@H](CC(C)C)NC(=O)[C@H](CO)NC(=O)[C@H](Cc1ccc(O)cc1)NC(=O)[C@H](CC(N)=O)NC(=O)[C@H](Cc1ccccc1)NC(=O)[C@H](CC(N)=O)NC(=O)[C@@H](N)CC(C)C)C(=O)N[C@H](C(=O)N[C@H](C(=O)N[C@@H](CC(=O)O)C(=O)O)C(C)C)[C@@H](C)CC [LNFNYSLMKIIVD] (H-LNFNYSLMKIIVD-OH)
- Kd (HLA-DR0901 protein): 46 ± 2 nM

Molecule: CC[C@H](C)[C@H](NC(=O)[C@H](CC(=O)O)NC(=O)[C@H](CC(=O)O)NC(=O)[C@H](CC(C)C)NC(=O)[C@H](CO)NC(=O)[C@H](Cc1ccc(O)cc1)NC(=O)[C@H](CC(N)=O)NC(=O)[C@H](Cc1ccccc1)NC(=O)[C@H](CC(N)=O)NC(=O)[C@@H](N)CC(C)C)C(=O)N[C@H](C(=O)N[C@H](C(=O)N[C@@H](CC(=O)O)C(=O)O)C(C)C)[C@@H](C)CC [LNFNYSLDDIIVD] (H-LNFNYSLDDIIVD-OH)
- Kd (HLA-DR0901 protein): 176 ± 65 nM

Molecule: CC[C@H](C)[C@H](NC(=O)[C@H](CCCCN)NC(=O)[C@H](CC(=O)O)NC(=O)[C@H](CC(C)C)NC(=O)[C@H](CO)NC(=O)[C@H](Cc1ccc(O)cc1)NC(=O)[C@H](CC(N)=O)NC(=O)[C@H](Cc1ccccc1)NC(=O)[C@H](CC(N)=O)NC(=O)[C@@H](N)CC(C)C)C(=O)N1CCC[C@H]1C(=O)N[C@H](C(=O)N[C@@H](CC(=O)O)C(=O)O)C(C)C [LNFNYSLDKIPVD] (H-LNFNYSLDKIPVD-OH)
- Kd (HLA-DR0901 protein): 1700 nM

Molecule: CC[C@H](C)[C@H](NC(=O)[C@H](Cc1ccccc1)NC(=O)[C@H](CC(=O)O)NC(=O)[C@H](CC(C)C)NC(=O)[C@H](CO)NC(=O)[C@H](Cc1ccc(O)cc1)NC(=O)[C@H](CC(N)=O)NC(=O)[C@H](Cc1ccccc1)NC(=O)[C@H](CC(N)=O)NC(=O)[C@@H](N)CC(C)C)C(=O)N[C@H](C(=O)N[C@H](C(=O)N[C@@H](CC(=O)O)C(=O)O)C(C)C)[C@@H](C)CC [LNFNYSLDFIIVD] (H-LNFNYSLDFIIVD-OH)
- Kd (HLA-DR0901 protein): 28 ± 6 nM

Molecule: CC[C@H](C)[C@H](NC(=O)[C@H](Cc1c[nH]cn1)NC(=O)[C@H](CC(=O)O)NC(=O)[C@H](CC(C)C)NC(=O)[C@H](CO)NC(=O)[C@H](Cc1ccc(O)cc1)NC(=O)[C@H](CC(N)=O)NC(=O)[C@H](Cc1ccccc1)NC(=O)[C@H](CC(N)=O)NC(=O)[C@@H](N)CC(C)C)C(=O)N[C@H](C(=O)N[C@H](C(=O)N[C@@H](CC(=O)O)C(=O)O)C(C)C)[C@@H](C)CC [LNFNYSLDHIIVD] (H-LNFNYSLDHIIVD-OH)
- Kd (HLA-DR0901 protein): 29 ± 9 nM

Molecule: CC[C@H](C)[C@H](NC(=O)[C@H](C)NC(=O)[C@H](CC(=O)O)NC(=O)[C@H](CC(C)C)NC(=O)[C@H](CO)NC(=O)[C@H](Cc1ccc(O)cc1)NC(=O)[C@H](CC(N)=O)NC(=O)[C@H](Cc1ccccc1)NC(=O)[C@H](CC(N)=O)NC(=O)[C@@H](N)CC(C)C)C(=O)N[C@H](C(=O)N[C@H](C(=O)N[C@@H](CC(=O)O)C(=O)O)C(C)C)[C@@H](C)CC [LNFNYSLDAIIVD] (H-LNFNYSLDAIIVD-OH)
- Kd (HLA-DR0901 protein): 65 ± 20 nM

Molecule: CC[C@H](C)[C@H](NC(=O)[C@H](CCCCN)NC(=O)[C@H](CC(=O)O)NC(=O)[C@H](CC(C)C)NC(=O)[C@H](CO)NC(=O)[C@H](Cc1ccc(O)cc1)NC(=O)[C@H](CC(N)=O)NC(=O)[C@H](Cc1ccccc1)NC(=O)[C@H](CC(N)=O)NC(=O)[C@@H](N)CC(C)C)C(=O)N[C@@H](CC(=O)O)C(=O)N[C@H](C(=O)N[C@@H](CC(=O)O)C(=O)O)C(C)C [LNFNYSLDKIDVD] (H-LNFNYSLDKIDVD-OH)
- Kd (HLA-DR0901 protein): 790 ± 120 nM

Molecule: CC[C@H](C)[C@H](NC(=O)[C@H](CCCCN)NC(=O)[C@H](CC(=O)O)NC(=O)[C@H](CC(C)C)NC(=O)[C@H](CO)NC(=O)[C@H](Cc1ccc(O)cc1)NC(=O)[C@H](CC(N)=O)NC(=O)[C@H](Cc1ccccc1)NC(=O)[C@H](CC(N)=O)NC(=O)[C@@H](N)CC(C)C)C(=O)N[C@@H](CC(N)=O)C(=O)N[C@H](C(=O)N[C@@H](CC(=O)O)C(=O)O)C(C)C [LNFNYSLDKINVD] (H-LNFNYSLDKINVD-OH)
- Kd (HLA-DR0901 protein): 2600 nM

Molecule: CC[C@H](C)[C@H](NC(=O)[C@H](CCCCN)NC(=O)[C@H](CCCNC(=N)N)NC(=O)[C@H](CC(C)C)NC(=O)[C@H](CO)NC(=O)[C@H](Cc1ccc(O)cc1)NC(=O)[C@H](CC(N)=O)NC(=O)[C@H](Cc1ccccc1)NC(=O)[C@H](CC(N)=O)NC(=O)[C@@H](N)CC(C)C)C(=O)N[C@H](C(=O)N[C@H](C(=O)N[C@@H](CC(=O)O)C(=O)O)C(C)C)[C@@H](C)CC [LNFNYSLRKIIVD] (H-LNFNYSLRKIIVD-OH)
- Kd (HLA-DR0901 protein): 130 ± 19 nM

Molecule: CC[C@H](C)[C@H](NC(=O)[C@H](CCCCN)NC(=O)[C@H](CC(=O)O)NC(=O)[C@H](CC(C)C)NC(=O)[C@H](CCC(N)=O)NC(=O)[C@H](Cc1ccc(O)cc1)NC(=O)[C@H](CC(N)=O)NC(=O)[C@H](Cc1ccccc1)NC(=O)[C@H](CC(N)=O)NC(=O)[C@@H](N)CC(C)C)C(=O)N[C@H](C(=O)N[C@H](C(=O)N[C@@H](CC(=O)O)C(=O)O)C(C)C)[C@@H](C)CC [LNFNYQLDKIIVD] (H-LNFNYQLDKIIVD-OH)
- Kd (HLA-DR0901 protein): 1500 nM
